The record followed here is publication doi:10.1101/2025.07.24.666388, “Small Molecule Activators of Protein Phosphatase 2A Exert Global Stabilising Effects on the Scaffold PR65” (bioRxiv, 2025).

In this experiment the target is T1, PR65 (PP2A scaffold subunit A) (Homo sapiens, UniProt P30153).
T1 construct: gene PPP2R1A; WT PR65, 15 HEAT repeats (GST tag cleaved); ybbR-tagged PR65 for optical tweezers
In words: fluorescence polarisation (PR65 titrated into fluorescent ATUX-8385); also nanoDSF shift and optical tweezers. The experiment is classed as binding.

T1 sequence (P30153 2-589): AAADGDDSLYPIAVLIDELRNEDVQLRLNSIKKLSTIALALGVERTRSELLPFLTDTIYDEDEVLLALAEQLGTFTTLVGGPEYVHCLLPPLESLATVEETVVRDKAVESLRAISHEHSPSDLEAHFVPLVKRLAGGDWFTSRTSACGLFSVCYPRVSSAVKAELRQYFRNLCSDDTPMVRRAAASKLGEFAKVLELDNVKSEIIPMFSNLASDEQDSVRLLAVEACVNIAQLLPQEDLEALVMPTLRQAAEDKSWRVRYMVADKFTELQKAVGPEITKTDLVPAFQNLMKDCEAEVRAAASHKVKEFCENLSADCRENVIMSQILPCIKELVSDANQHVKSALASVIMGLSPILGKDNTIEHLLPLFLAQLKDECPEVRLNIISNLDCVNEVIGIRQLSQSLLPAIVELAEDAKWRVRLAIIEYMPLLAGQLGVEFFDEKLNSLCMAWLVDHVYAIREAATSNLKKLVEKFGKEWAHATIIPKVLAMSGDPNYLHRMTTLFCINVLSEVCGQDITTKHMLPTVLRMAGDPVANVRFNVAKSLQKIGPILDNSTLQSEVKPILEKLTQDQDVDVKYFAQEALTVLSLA

The Kd is the concentration at which binding is half-saturated. As for `O=S(=O)(NC1CNCC(n2c3ccc(F)cc3c3cc(F)ccc32)C1O)c1ccc(OC(F)(F)F)cc1` (stereo not shown) [ATUX-8385], the Kd stood at 4.7 ± 1.1 µM.
